From ChEMBL document CHEMBL5465560, “Selectivity Literature for EUbOPEN Chemogenomic Library” (2024) come the findings set out here.

Assay [1] addresses T1, Tyrosine-protein kinase ZAP-70 (Homo sapiens) (UniProt P43403).
T1 sequence (whole entry): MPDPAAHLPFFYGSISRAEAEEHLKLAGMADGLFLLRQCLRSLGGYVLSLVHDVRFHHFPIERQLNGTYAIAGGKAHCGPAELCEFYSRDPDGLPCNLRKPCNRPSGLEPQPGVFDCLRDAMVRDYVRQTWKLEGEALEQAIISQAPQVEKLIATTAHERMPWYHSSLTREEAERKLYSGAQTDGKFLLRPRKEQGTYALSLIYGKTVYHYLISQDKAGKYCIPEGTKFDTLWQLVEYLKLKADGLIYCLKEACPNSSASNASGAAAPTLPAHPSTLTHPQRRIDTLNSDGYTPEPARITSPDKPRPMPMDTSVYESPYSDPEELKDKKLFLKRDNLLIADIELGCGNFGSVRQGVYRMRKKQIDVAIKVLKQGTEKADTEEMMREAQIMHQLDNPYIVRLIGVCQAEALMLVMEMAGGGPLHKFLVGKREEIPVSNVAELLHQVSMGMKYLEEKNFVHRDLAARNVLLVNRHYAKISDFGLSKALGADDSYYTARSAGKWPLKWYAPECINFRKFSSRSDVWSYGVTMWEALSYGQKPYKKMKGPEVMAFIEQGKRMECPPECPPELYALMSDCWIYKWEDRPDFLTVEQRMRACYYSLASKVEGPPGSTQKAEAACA
In words: Selectivity interaction (ActivX KiNativ screen (ex vivo kinase selectivity in human PBMCs)) EUB0001619a ZAP70. The assay is classed as cell-based. The note with it: PBMC, at 1 µM.

For assay [2], the target named is Voltage-dependent N-type calcium channel subunit alpha-1B (Homo sapiens) (UniProt Q00975). In words: Selectivity interaction (Eurofins CEREP Diversity Profile (receptors and ion channels)) EUB0000279b CACNA1B. The following applies: at 10 µM.
Sequence of Voltage-dependent N-type calcium channel subunit alpha-1B (Homo sapiens) (Q00975 whole entry, looked up): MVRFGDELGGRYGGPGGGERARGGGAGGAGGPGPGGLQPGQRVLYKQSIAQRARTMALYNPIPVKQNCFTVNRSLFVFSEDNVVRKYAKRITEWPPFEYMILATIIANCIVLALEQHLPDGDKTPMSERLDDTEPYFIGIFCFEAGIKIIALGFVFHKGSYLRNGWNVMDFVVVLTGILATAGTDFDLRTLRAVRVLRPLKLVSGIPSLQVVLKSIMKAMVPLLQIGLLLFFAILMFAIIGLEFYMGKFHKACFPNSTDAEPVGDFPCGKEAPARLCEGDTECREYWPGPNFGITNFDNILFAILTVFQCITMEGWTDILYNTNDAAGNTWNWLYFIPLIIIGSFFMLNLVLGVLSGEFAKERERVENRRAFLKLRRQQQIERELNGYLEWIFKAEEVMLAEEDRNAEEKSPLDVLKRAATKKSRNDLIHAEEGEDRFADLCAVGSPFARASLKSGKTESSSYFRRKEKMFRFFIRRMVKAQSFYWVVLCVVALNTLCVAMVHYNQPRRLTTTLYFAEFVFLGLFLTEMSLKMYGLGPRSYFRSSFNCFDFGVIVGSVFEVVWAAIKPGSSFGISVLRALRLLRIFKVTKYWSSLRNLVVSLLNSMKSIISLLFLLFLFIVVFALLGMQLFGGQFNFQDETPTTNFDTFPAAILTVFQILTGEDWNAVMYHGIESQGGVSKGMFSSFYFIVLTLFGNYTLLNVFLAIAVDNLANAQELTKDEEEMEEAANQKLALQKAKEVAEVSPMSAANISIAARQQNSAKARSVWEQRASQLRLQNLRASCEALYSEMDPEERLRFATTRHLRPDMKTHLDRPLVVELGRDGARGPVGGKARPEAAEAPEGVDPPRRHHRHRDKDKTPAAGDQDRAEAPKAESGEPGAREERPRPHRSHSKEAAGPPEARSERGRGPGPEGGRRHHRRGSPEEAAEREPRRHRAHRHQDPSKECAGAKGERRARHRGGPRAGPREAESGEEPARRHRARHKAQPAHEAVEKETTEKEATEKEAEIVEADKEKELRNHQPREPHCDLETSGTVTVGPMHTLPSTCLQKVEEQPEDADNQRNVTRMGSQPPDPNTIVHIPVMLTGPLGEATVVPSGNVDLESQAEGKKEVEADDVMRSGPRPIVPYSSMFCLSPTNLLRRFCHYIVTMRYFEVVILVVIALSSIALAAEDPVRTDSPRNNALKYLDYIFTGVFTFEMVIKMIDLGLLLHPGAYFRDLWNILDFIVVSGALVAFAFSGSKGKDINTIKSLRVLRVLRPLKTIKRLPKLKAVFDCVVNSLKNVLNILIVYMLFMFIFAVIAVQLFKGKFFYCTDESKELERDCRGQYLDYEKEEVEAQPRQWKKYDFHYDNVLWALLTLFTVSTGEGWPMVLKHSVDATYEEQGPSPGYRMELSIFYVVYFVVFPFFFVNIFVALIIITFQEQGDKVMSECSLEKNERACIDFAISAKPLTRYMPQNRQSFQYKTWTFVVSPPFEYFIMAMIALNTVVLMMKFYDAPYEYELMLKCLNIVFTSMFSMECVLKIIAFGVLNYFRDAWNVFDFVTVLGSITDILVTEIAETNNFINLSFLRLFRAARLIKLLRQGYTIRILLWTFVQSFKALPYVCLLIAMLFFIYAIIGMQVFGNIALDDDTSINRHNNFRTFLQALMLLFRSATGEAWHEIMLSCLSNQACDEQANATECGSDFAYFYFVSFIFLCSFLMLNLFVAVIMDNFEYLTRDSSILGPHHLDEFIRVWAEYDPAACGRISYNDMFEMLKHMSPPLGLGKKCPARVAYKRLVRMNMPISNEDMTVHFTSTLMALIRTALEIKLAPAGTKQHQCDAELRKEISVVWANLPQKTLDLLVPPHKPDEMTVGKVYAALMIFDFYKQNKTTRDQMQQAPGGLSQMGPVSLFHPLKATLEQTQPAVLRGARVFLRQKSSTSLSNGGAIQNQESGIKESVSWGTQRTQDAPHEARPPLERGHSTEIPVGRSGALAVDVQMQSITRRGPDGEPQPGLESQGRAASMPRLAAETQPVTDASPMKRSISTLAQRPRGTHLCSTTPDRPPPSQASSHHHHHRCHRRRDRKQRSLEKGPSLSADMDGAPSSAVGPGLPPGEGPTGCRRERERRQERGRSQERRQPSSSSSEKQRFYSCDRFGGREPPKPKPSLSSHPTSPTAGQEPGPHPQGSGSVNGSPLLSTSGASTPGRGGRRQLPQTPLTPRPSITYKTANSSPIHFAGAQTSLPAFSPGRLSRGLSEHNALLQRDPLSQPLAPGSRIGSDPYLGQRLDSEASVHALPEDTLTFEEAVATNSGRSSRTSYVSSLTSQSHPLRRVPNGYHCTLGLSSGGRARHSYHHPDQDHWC
Assay [3] addresses Cyclin-dependent kinase 16 (Homo sapiens) (UniProt Q00536). The assay can be described thus: Selectivity interaction (KinomeScan (DiscoverX)) EUB0000695a CDK16. The following applies: at 100 nM.
Assay [4] deals with T2, Dual specificity mitogen-activated protein kinase kinase 4 (Homo sapiens) (UniProt P45985).
T2 sequence (whole entry): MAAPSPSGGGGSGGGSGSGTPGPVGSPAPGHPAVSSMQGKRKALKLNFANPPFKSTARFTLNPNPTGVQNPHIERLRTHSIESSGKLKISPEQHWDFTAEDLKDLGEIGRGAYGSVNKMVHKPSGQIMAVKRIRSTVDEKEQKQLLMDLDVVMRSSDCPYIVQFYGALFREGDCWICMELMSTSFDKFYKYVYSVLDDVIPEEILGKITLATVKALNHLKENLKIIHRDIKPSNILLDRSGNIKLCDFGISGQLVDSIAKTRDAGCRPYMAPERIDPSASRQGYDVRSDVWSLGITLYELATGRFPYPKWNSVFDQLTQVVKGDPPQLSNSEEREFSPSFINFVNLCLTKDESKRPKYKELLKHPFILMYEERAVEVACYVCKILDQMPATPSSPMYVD
In words: Selectivity interaction (KinomeScan (DiscoverX)) EUB0000607a MAP2K4. The note with it: at 10 µM.

Assay [5] addresses Dual specificity mitogen-activated protein kinase kinase 1 (Homo sapiens, UniProt Q02750). The assay can be described thus: Selectivity interaction (ActivX KiNativ screen (kinase selectivity in THP-1 cell lysates)) EUB0000639a MAP2K1. Type of assay: subcellular. The following applies: lysate, at 5 µM.
The target in assay [6] is Serine/threonine-protein kinase WNK3 (Homo sapiens) (UniProt Q9BYP7). In words: Selectivity interaction (Ambit KINOMEscan and KiNATiv profiling in Jurkat cells) EUB0000090b WNK3. The assay is classed as cell-based. The note with it: at 1 µM.
Sequence of Serine/threonine-protein kinase WNK3 (Homo sapiens) (Q9BYP7 whole entry): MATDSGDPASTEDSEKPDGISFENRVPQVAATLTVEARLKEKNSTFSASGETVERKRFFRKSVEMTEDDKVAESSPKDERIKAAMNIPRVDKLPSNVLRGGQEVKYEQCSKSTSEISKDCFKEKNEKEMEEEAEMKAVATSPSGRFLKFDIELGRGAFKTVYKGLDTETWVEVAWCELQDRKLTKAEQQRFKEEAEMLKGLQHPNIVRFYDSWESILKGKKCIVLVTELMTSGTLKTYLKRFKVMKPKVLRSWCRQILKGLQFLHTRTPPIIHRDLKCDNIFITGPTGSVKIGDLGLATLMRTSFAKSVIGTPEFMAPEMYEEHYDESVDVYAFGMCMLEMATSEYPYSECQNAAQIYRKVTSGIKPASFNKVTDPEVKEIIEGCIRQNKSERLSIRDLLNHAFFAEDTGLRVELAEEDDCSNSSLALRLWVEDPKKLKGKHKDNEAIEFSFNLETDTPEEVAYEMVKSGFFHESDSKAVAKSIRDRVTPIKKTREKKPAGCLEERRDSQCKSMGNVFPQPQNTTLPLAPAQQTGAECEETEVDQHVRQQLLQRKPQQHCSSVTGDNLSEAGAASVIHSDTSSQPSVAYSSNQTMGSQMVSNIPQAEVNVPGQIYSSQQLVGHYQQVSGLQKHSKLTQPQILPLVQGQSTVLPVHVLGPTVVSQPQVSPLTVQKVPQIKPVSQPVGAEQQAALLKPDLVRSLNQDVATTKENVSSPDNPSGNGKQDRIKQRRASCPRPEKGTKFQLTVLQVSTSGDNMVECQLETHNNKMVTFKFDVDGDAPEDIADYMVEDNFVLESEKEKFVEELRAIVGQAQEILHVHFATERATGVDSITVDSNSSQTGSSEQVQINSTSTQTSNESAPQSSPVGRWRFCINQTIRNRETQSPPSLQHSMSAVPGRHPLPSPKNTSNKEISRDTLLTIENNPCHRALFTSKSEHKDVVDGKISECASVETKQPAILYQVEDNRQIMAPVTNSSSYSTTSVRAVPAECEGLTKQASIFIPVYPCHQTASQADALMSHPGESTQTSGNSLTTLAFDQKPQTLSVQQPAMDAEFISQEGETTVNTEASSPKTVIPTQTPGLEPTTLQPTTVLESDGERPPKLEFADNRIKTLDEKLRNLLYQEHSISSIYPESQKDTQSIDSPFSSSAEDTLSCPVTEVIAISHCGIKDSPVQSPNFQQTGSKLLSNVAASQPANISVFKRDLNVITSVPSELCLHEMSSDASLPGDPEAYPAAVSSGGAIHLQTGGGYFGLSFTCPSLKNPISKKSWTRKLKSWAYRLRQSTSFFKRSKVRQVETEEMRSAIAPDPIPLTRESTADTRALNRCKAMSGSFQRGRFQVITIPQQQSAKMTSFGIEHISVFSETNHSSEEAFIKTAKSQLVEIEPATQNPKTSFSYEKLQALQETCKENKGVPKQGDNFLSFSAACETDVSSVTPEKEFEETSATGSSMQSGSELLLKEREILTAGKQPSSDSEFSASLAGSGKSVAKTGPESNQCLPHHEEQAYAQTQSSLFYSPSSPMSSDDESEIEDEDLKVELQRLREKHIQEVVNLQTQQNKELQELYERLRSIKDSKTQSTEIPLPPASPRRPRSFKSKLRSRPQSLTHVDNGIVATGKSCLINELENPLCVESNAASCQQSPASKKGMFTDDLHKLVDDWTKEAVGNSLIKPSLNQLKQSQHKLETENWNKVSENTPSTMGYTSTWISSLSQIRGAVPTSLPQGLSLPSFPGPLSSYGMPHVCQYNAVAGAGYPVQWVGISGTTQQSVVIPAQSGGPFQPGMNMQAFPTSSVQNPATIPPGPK
In assay [7] the target is Fibroblast growth factor receptor 3 (Homo sapiens, UniProt P22607). In words: Selectivity interaction (KinomeScan (DiscoverX)) EUB0000092b FGFR3. The following applies: at 10 µM.
Assay [8] deals with Acetylcholine receptor subunit alpha (Homo sapiens, UniProt P02708). The assay can be described thus: Selectivity interaction (Panel of kinases, GPCRs, ion channels and transporters (enzymatic assay)) EUB0000266bCl CHRNA1.
Sequence of Acetylcholine receptor subunit alpha (P02708 whole entry): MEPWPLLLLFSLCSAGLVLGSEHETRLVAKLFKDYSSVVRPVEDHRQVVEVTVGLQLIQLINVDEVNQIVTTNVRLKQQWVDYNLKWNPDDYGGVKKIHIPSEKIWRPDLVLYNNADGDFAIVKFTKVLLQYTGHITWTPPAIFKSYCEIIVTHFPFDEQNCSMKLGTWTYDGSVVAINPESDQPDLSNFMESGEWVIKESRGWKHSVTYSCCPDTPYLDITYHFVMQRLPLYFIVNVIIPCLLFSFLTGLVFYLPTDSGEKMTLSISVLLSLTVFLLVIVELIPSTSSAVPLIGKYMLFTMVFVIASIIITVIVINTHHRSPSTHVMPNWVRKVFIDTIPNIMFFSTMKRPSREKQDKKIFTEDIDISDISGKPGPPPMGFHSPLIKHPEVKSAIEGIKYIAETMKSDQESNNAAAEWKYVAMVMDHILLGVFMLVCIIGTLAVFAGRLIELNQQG
Assay [9] deals with T3, Serine/threonine-protein kinase LATS2 (Homo sapiens) (UniProt Q9NRM7).
T3 sequence (whole entry): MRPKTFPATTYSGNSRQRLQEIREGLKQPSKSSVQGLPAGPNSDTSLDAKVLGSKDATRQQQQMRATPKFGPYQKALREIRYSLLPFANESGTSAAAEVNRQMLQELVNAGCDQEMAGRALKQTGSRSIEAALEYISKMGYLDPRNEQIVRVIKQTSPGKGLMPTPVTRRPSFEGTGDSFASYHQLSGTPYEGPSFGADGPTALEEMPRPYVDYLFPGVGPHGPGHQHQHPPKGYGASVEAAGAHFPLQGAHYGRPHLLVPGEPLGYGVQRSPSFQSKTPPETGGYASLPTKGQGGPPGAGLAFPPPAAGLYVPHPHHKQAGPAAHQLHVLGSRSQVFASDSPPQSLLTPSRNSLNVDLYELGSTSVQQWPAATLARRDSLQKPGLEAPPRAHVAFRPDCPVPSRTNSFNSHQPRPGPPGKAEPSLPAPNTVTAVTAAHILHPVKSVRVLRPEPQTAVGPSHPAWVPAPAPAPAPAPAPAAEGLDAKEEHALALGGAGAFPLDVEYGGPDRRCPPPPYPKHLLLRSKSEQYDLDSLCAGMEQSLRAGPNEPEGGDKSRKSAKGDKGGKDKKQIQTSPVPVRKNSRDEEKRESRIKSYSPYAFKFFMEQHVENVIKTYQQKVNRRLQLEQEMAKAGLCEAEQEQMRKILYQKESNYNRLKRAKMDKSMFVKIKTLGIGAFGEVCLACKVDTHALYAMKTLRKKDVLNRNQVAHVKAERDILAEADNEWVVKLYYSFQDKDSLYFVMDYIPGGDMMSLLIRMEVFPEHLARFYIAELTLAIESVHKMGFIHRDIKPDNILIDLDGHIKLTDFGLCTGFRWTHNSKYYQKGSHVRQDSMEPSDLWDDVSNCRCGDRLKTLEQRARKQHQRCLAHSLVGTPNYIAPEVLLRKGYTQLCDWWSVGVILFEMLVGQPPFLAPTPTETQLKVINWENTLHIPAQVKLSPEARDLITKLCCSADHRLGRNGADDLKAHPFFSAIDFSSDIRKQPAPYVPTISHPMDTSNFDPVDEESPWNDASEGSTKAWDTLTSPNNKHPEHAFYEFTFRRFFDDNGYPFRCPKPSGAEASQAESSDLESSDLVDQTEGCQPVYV
In words: Selectivity interaction (Kinase panel (KiNativ target engagement assay in Jurkat cells)) EUB0001635a LATS2. The note with it: Selectivity number of off-targets 0.0, Selectivity number of targets 233.0, Source Knowledge https://www.sciencedirect.com/science/article/pii/S2451945619300674?via%3Dihub, at 1 µM. The assay is classed as cell-based.

Sequence of Cyclin-dependent kinase 16 (Homo sapiens) (Q00536 whole entry): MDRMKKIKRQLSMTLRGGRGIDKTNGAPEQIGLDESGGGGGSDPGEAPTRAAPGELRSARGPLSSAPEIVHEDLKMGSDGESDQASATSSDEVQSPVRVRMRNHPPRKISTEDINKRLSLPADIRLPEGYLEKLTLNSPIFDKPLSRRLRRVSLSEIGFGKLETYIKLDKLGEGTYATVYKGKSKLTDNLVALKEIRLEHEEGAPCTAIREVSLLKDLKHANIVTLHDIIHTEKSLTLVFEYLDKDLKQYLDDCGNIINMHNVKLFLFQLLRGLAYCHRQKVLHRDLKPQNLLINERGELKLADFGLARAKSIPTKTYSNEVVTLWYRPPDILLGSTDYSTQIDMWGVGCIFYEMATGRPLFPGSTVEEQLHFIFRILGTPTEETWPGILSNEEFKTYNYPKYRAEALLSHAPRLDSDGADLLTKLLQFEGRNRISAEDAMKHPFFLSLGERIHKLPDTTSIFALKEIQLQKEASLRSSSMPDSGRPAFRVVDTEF

`N#Cc1cccc(-c2c[nH]c3ncnc(N4CCOCC4)c23)c1` displayed a % of inhibition in assay [1] of 7%.

Consider `CC(=O)c1cc(-c2ccccc2OCC2CC2)c2ncccn12`, for which, in assay [2], the % of control came out at 115%.

On to `Cc1cc(F)c(C(=O)Nc2cccc(-c3nncn3C(C)C)n2)cc1-n1cnc(C2CC2)c1`, for which, in assay [3], the % of control was 75%.

Compound `CNC(=O)Nc1ccc(-c2nc(N3CC4CCC(C3)O4)c3cnn(C4CCC5(CC4)OCCO5)c3n2)cc1` returned a % of control in [4] of 90%.

The compound `CC[C@@H]1[C@H](F)C(=O)N[C@@H]1COc1nccc2cc(C(N)=O)c(OC)cc12` [ZIMLOVISERTIB] registered a % of inhibition in assay [5] of 20.8%.

For `CN(C)C/C=C/C(=O)Nc1ccc(C(=O)N2CCCC(Nc3ncc(Cl)c(-c4c[nH]c5ccccc45)n3)C2)cc1` (centres undefined), in assay [6], the % of control came out at 89%.

`CCC(=O)N1CCN(c2ccc(-n3c(=O)ccc4cnc5ccc(-c6cnc7ccccc7c6)cc5c43)cc2C(F)(F)F)CC1` showed a % of control in assay [7] of 42%.

In assay [8], `CCn1c(-c2nc3cc(C(=O)N4CCCC(N)C4)ccc3n2C)cc2ccccc21` (centres undefined) had a pXC50 of under 4.8 M.

For `C=CC(=O)Nc1ccc(C(=O)Nc2[nH]nc3c2CN(C(=O)N[C@H](CN(C)C)c2ccccc2)C3(C)C)cc1`, the % of engagement in [9] was -12.8%.
